Laboratory results as given in ChEMBL document CHEMBL3621049, “Imidazole derivatives show anticancer potential by inducing apoptosis and cellular senescence” (2014).
Activity calls are given as the source filed them.

Key:
Assay type in all cases: functional, cell-based
[1] = test system: HCT-15; experiment: Growth inhibition of human HCT15 cells at 10 uM by sulforhodamine B assay
[2] = test system: SK-OV-3; experiment: Growth inhibition of human SKOV3 cells at 10 uM by sulforhodamine B assay
[3] = test system: OVCAR-3; experiment: Growth inhibition of human OVCAR3 cells at 10 uM by sulforhodamine B assay
[4] = test system: Hs-578T; experiment: Growth inhibition of human Hs 578T cells at 10 uM by sulforhodamine B assay
[5] = test system: 786-0; experiment: Growth inhibition of human 786-0 cells at 10 uM by sulforhodamine B assay
[6] = test system: UACC-257; experiment: Growth inhibition of human UACC257 cells at 10 uM by sulforhodamine B assay
[7] = test system: MCF7; experiment: Growth inhibition of human MCF7 cells at 10 uM by sulforhodamine B assay
[8] = test system: CAKI-1; experiment: Growth inhibition of human Caki1 cells at 10 uM by sulforhodamine B assay
[9] = test system: SF-268; experiment: Growth inhibition of human SF268 cells at 10 uM by sulforhodamine B assay
[10] = test system: NCI-H322M; experiment: Growth inhibition of human NCI-H322M cells at 10 uM by sulforhodamine B assay
[11] = test system: CCRF-CEM; experiment: Growth inhibition of human CCRF-CEM cells at 10 uM by sulforhodamine B assay
[12] = test system: NCI-H23; experiment: Growth inhibition of human NCI-H23 cells at 10 uM by sulforhodamine B assay
[13] = test system: BT-549; experiment: Growth inhibition of human BT549 cells at 10 uM by sulforhodamine B assay
[14] = test system: K562; experiment: Growth inhibition of human K562 cells at 10 uM by sulforhodamine B assay
[15] = test system: UACC-62; experiment: Growth inhibition of human UACC62 cells at 10 uM by sulforhodamine B assay
[16] = test system: NCI-H522; experiment: Growth inhibition of human NCI-H522 cells at 10 uM by sulforhodamine B assay
[17] = test system: OVCAR-4; experiment: Growth inhibition of human OVCAR4 cells at 10 uM by sulforhodamine B assay
[18] = test system: M14; experiment: Growth inhibition of human M14 cells at 10 uM by sulforhodamine B assay
[19] = test system: RPMI-8226; experiment: Growth inhibition of human RPMI8226 cells at 10 uM by sulforhodamine B assay
[20] = test system: Malme-3M; experiment: Growth inhibition of human MALME-3M cells at 10 uM by sulforhodamine B assay
[21] = test system: LOX IMVI; experiment: Growth inhibition of human LOXIMVI cells at 10 uM by sulforhodamine B assay
[22] = test system: A498; experiment: Growth inhibition of human A498 cells at 10 uM by sulforhodamine B assay
[23] = test system: HL-60(TB); experiment: Growth inhibition of human HL-60(TB) cells at 10 uM by sulforhodamine B assay
[24] = test system: MDA-MB-435; experiment: Growth inhibition of human MDA-MB-435 cells at 10 uM by sulforhodamine B assay
[25] = test system: UO-31; experiment: Growth inhibition of human UO31 cells at 10 uM by sulforhodamine B assay
[26] = test system: HT-29; experiment: Growth inhibition of human HT-29 cells at 10 uM by sulforhodamine B assay
[27] = test system: HOP-92; experiment: Growth inhibition of human HOP92 cells at 10 uM by sulforhodamine B assay
[28] = test system: SN12C; experiment: Growth inhibition of human SN12C cells at 10 uM by sulforhodamine B assay
[29] = test system: OVCAR-5; experiment: Growth inhibition of human OVCAR5 cells at 10 uM by sulforhodamine B assay
[30] = test system: TK-10; experiment: Growth inhibition of human TK10 cells at 10 uM by sulforhodamine B assay
[31] = test system: ACHN; experiment: Growth inhibition of human ACHN cells at 10 uM by sulforhodamine B assay
[32] = test system: SK-MEL-28; experiment: Growth inhibition of human SK-MEL-28 cells at 10 uM by sulforhodamine B assay
[33] = test system: HCC 2998; experiment: Growth inhibition of human HCC2998 cells at 10 uM by sulforhodamine B assay
[34] = test system: DU-145; experiment: Growth inhibition of human DU145 cells at 10 uM by sulforhodamine B assay
[35] = test system: NCI-H226; experiment: Growth inhibition of human NCI-H226 cells at 10 uM by sulforhodamine B assay
[36] = test system: SNB-75; experiment: Growth inhibition of human SNB75 cells at 10 uM by sulforhodamine B assay
[37] = test system: SF-295; experiment: Growth inhibition of human SF295 cells at 10 uM by sulforhodamine B assay
[38] = test system: SF-539; experiment: Growth inhibition of human SF539 cells at 10 uM by sulforhodamine B assay
[39] = test system: HCT-116; experiment: Growth inhibition of human HCT116 cells at 10 uM by sulforhodamine B assay
[40] = test system: SK-MEL-2; experiment: Growth inhibition of human SK-MEL-2 cells at 10 uM by sulforhodamine B assay
[41] = test system: RXF 393; experiment: Growth inhibition of human RXF393 cells at 10 uM by sulforhodamine B assay
[42] = test system: SNB-19; experiment: Growth inhibition of human SNB19 cells at 10 uM by sulforhodamine B assay
[43] = test system: COLO 205; experiment: Growth inhibition of human COLO205 cells at 10 uM by sulforhodamine B assay
[44] = test system: T47D; experiment: Growth inhibition of human T47D cells at 10 uM by sulforhodamine B assay
[45] = test system: NCI/ADR-RES; experiment: Growth inhibition of human NCI/ADR-RES cells at 10 uM by sulforhodamine B assay
[46] = test system: MOLT-4; experiment: Growth inhibition of human MOLT4 cells at 10 uM by sulforhodamine B assay
[47] = test system: MDA-MB-231; experiment: Growth inhibition of human MDA-MB-231 cells at 10 uM by sulforhodamine B assay
[48] = test system: KM12; experiment: Growth inhibition of human KM12 cells at 10 uM by sulforhodamine B assay
[49] = test system: SK-MEL-5; experiment: Growth inhibition of human SK-MEL-5 cells at 10 uM by sulforhodamine B assay
[50] = test system: IGROV-1; experiment: Growth inhibition of human IGROV1 cells at 10 uM by sulforhodamine B assay
[51] = test system: SW-620; experiment: Growth inhibition of human SW620 cells at 10 uM by sulforhodamine B assay
[52] = test system: PC-3; experiment: Growth inhibition of human PC3 cells at 10 uM by sulforhodamine B assay
[53] = test system: A549; experiment: Growth inhibition of human A549/ATCC cells at 10 uM by sulforhodamine B assay
[54] = test system: HOP-62; experiment: Growth inhibition of human HOP62 cells at 10 uM by sulforhodamine B assay
[55] = test system: U-251; experiment: Growth inhibition of human U251 cells at 10 uM by sulforhodamine B assay
[56] = test system: OVCAR-8; experiment: Growth inhibition of human OVCAR8 cells at 10 uM by sulforhodamine B assay
[57] = test system: NCI-H460; experiment: Growth inhibition of human NCI-H460 cells at 10 uM by sulforhodamine B assay
[58] = test system: SR; experiment: Growth inhibition of human SR cells at 10 uM by sulforhodamine B assay
[59] = test system: MDA-MB-468; experiment: Growth inhibition of human MDA-MB-468 cells at 10 uM by sulforhodamine B assay

Measured: growth inhibition (GI)

C#CCn1c(-c2ccc(OC)c(OC3CCCC3)c2)nc(-c2ccccc2)c1-c1ccccc1
active: all assays above

COc1ccc(-c2nc(-c3ccccc3)c(-c3ccccc3)n2C2CC2)cc1OC1CCCCC1
active: all assays above
